According to patent US7524823B2, “Macrolides” (Basilea Pharmaceutica AG, priority 2005, dated 2009):
In brackets after ≈: the same amount, converted by molar mass.

Key:
Type in all cases: cell-based
[1] = tested on: Escherichia coli ATCC 25922; assay: MIC by broth microdilution (CAMHB, NCCLS); conditions: code C: Escherichia coli ATCC 25922
Procedure: (§1) MIC values for non-anaerobes were obtained by broth microdilution using CAMHB (BBL) according to NCCLS guidelines (National Committee for Clinical Laboratory Standards. Methods for dilution antimicrobial susceptibility tests for bacteria that grow aerobically, 5th ed. Approved standard M7-A6. NCCLS, Wayne, Pa., 2003). Drugs were dissolved in DMSO prior to dispensing into 96-well microtitre plates; the concentration of DMSO in assay wells never exceeded 2% (v/v). CAMHB was supplemented with 5% (v/v) horse serum (Sigma, cat. no. H-1270) in lieu of laked horse blood for cultivation of Streptococcus pneumoniae, and with 5% (v/v) Fildes enrichment (BBL, cat. no. 220810) supernate in lieu of Haemophilus Test Medium and additives for cultivation of Haemophilus influenzae (Pankuch G A, Hoellman D B, Lin G, Bajaksouzian S, Jacobs M R, Appelbaum P C. Activity of HMR 3647 compared to those of five agents against Haemophilus influenzae and Moraxella catarrhalis by MIC determination and time-kill assay. Antimicrob. Agents Chemother. November 1998; 42(11): 3032-4). Activities expressed as the minimal inhibitory concentrations (MICs) (μg/ml) are given in the following Table 3, and the microorganisms used for testing are listed in Table 2 below.

[2] = tested on: Staphylococcus aureus 1086; assay: MIC by broth microdilution (CAMHB, NCCLS); conditions: code B: Staphylococcus aureus 1086
Procedure: as §1

[3] = tested on: Staphylococcus aureus ATCC 29213; assay: MIC by broth microdilution (CAMHB, NCCLS); conditions: code A: Staphylococcus aureus ATCC 29213
Procedure: as §1

[4] = tested on: Streptococcus pneumoniae 1/1; assay: MIC by broth microdilution (CAMHB + 5% horse serum, NCCLS); conditions: code D: Streptococcus pneumoniae 1/1
Procedure: as §1

[5] = tested on: Streptococcus pneumoniae SL199T; assay: as above; conditions: code E: Streptococcus pneumoniae SL199T
Procedure: as §1

[6] = tested on: Streptococcus pneumoniae Tupelo; assay: as above; conditions: code F: Streptococcus pneumoniae Tupelo
Procedure: as §1

[7] = tested on: Haemophilus influenzae 12214; assay: MIC by broth microdilution (CAMHB + 5% Fildes enrichment, NCCLS); conditions: code G: Haemophilus influenzae 12214
Procedure: as §1

[8] = tested on: Haemophilus influenzae QK50; assay: as above; conditions: code H: Haemophilus influenzae QK50
Procedure: as §1

[9] = tested on: Propionibacterium acnes EG7NS; assay: MIC by anaerobic broth microdilution (WCB, NCCLS); conditions: code I: Propionibacterium acnes EG7NS; anaerobic, 35-37° C., 48 h
Procedure: (§2) MIC values towards strains of propionibacteria were obtained by broth microdilution using WCB (Anaerobe Broth MIC, Difco) according to NCCLS guidelines (National Committee for Clinical Laboratory Standards. Methods for anti-microbial susceptibility testing of anaerobic bacteria, 5th ed.; approved standard. NCCLS publication no. M11-A5. NCCLS, Wayne, Pa., 2001). Microtitre plates were loaded into 7-L GENbox anaerobic incubation jars (BioMérieux, cat. no. 96 128) fitted with anaerobic atmosphere generators (BioMérieux, cat. no. 96 124) and a Dry Anaerobic Indicator Strip (BBL, cat. no. 271051). Under these conditions, an O2 concentration <0.1% was achieved by 2.5 h, and a CO2 concentration >15% by 24 h. MIC values were read after incubation at 35-37° C. for 48 h (Table 3).

[10] = tested on: Propionibacterium acnes SW101T; assay: MIC by anaerobic broth microdilution (WCB, NCCLS); conditions: code K: Propionibacterium acnes SW101T, 35-37° C., 48 h
Procedure: as §2

SMILES	MIC [1]	MIC [2]	MIC [3]	MIC [4]	MIC [5]	MIC [6]	MIC [7]	MIC [8]	MIC [9]	MIC [10]
CC[C@H]1OC(=O)[C@H](C)[C@@H](O[C@H]2C[C@@](C)(OC)[C@@H](O)[C@H](C)O2)[C@H](C)[C@@H](O[C@@H]2O[C@H](C)C[C@H](N(C)C)[C@H]2O)[C@](C)(OC)C[C@@H](C)C(=O)[C@H](C)[C@H]2[C@H](SCCn3ccc(-c4cccnc4)n3)C(=O)O[C@@]21C [Example 17]	>32 µg/mL	>32 µg/mL	1 µg/mL (≈ 1.03 µM)	<=0.06 μg/ml	0.5 µg/mL	1 µg/mL	4 µg/mL	4 µg/mL	<=0.06 μg/ml	16 µg/mL (≈ 16.4 µM)
CC[C@H]1OC(=O)[C@H](C)[C@@H](O[C@H]2C[C@@](C)(OC)[C@@H](O)[C@H](C)O2)[C@H](C)[C@@H](O[C@@H]2O[C@H](C)C[C@H](N(C)C)[C@H]2O)[C@](C)(OC)C[C@@H](C)C(=O)[C@H](C)[C@H]2[C@H](SCCn3cncn3)C(=O)O[C@@]21C [Example 18]	32 µg/mL (≈ 35.6 µM)	>=32 μg/ml	1 µg/mL (≈ 1.11 µM)	<=0.06 μg/ml	2 µg/mL	4 µg/mL	2 µg/mL	2 µg/mL	<=0.06 μg/ml	>32 µg/mL
CC[C@H]1OC(=O)[C@H](C)[C@@H](O[C@H]2C[C@@](C)(OC)[C@@H](O)[C@H](C)O2)[C@H](C)[C@@H](O[C@@H]2O[C@H](C)C[C@H](N(C)C)[C@H]2O)[C@](C)(OC)C[C@@H](C)C(=O)[C@H](C)[C@H]2[C@H](SCCn3cnc4ccccc43)C(=O)O[C@@]21C [Example 19]	>32 µg/mL	>32 µg/mL	1 µg/mL (≈ 1.05 µM)	<=0.06 μg/ml	0.5 µg/mL	1 µg/mL	2 µg/mL	2 µg/mL	<=0.06 μg/ml	4 µg/mL (≈ 4.22 µM)
CC[C@H]1OC(=O)[C@H](C)[C@@H](O[C@H]2C[C@@](C)(OC)[C@@H](O)[C@H](C)O2)[C@H](C)[C@@H](O[C@@H]2O[C@H](C)C[C@H](N(C)C)[C@H]2O)[C@](C)(OC)C[C@@H](C)C(=O)[C@H](C)[C@H]2[C@H](SCCn3cnc4cncnc43)C(=O)O[C@@]21C [Example 20]	>32 µg/mL	>32 µg/mL	1 µg/mL (≈ 1.05 µM)	<=0.06 μg/ml	0.5 µg/mL	1 µg/mL	1 µg/mL	1 µg/mL	<=0.06 μg/ml	8 µg/mL (≈ 8.42 µM)
CC[C@H]1OC(=O)[C@H](C)[C@@H](O[C@H]2C[C@@](C)(OC)[C@@H](O)[C@H](C)O2)[C@H](C)[C@@H](O[C@@H]2O[C@H](C)C[C@H](N(C)C)[C@H]2O)[C@](C)(OC)C[C@@H](C)C(=O)[C@H](C)[C@H]2[C@H](SCCn3cc(C)c(=O)[nH]c3=O)C(=O)O[C@@]21C [Example 21]	>32 µg/mL	>32 µg/mL	2 µg/mL (≈ 2.09 µM)	<=0.06 μg/ml	0.5 µg/mL	2 µg/mL	4 µg/mL	4 µg/mL	<=0.06 μg/ml	4 µg/mL (≈ 4.18 µM)

Other lines, results leading:

MIC [1]	MIC [2]	MIC [3]	MIC [4]	MIC [5]	MIC [6]	MIC [7]	MIC [8]	MIC [9]	MIC [10]	SMILES
>32 µg/mL	32 µg/mL (≈ 33.2 µM)	2 µg/mL (≈ 2.07 µM)	<=0.06 μg/ml	8 µg/mL	8 µg/mL	8 µg/mL	8 µg/mL	<=0.06 μg/ml	32 µg/mL (≈ 33.2 µM)	CC[C@H]1OC(=O)[C@H](C)[C@@H](O[C@H]2C[C@@](C)(OC)[C@@H](O)[C@H](C)O2)[C@H](C)[C@@H](O[C@@H]2O[C@H](C)C[C@H](N(C)C)[C@H]2O)[C@](C)(OC)C[C@@H](C)C(=O)[C@H](C)[C@H]2[C@H](SCC(=O)Nc3ccc(C)c(C)c3)C(=O)O[C@@]21C [Example 22]
>32 µg/mL	32 µg/mL (≈ 32.9 µM)	2 µg/mL (≈ 2.06 µM)	<=0.06 μg/ml	2 µg/mL	2 µg/mL	4 µg/mL	4 µg/mL	<=0.06 μg/ml	32 µg/mL (≈ 32.9 µM)	CC[C@H]1OC(=O)[C@H](C)[C@@H](O[C@H]2C[C@@](C)(OC)[C@@H](O)[C@H](C)O2)[C@H](C)[C@@H](O[C@@H]2O[C@H](C)C[C@H](N(C)C)[C@H]2O)[C@](C)(OC)C[C@@H](C)C(=O)[C@H](C)[C@H]2[C@H](SCC(=O)Nc3ccc(F)cc3F)C(=O)O[C@@]21C [Example 23]
>32 µg/mL	>=32 μg/ml	1 µg/mL (≈ 0.975 µM)	<=0.06 μg/ml	4 µg/mL	8 µg/mL	8 µg/mL	8 µg/mL	<=0.06 μg/ml	>32 µg/mL	CC[C@H]1OC(=O)[C@H](C)[C@@H](O[C@H]2C[C@@](C)(OC)[C@@H](O)[C@H](C)O2)[C@H](C)[C@@H](O[C@@H]2O[C@H](C)C[C@H](N(C)C)[C@H]2O)[C@](C)(OC)C[C@@H](C)C(=O)[C@H](C)[C@H]2[C@H](SCC(=O)Nc3ccc(C(=O)OC)c(OC)c3)C(=O)O[C@@]21C [Example 24]
>32 µg/mL	16 µg/mL (≈ 16.2 µM)	1 µg/mL (≈ 1.01 µM)	<=0.06 μg/ml	1 µg/mL	0.5 µg/mL	4 µg/mL	4 µg/mL	<=0.06 μg/ml	4 µg/mL (≈ 4.05 µM)	CC[C@H]1OC(=O)[C@H](C)[C@@H](O[C@H]2C[C@@](C)(OC)[C@@H](O)[C@H](C)O2)[C@H](C)[C@@H](O[C@@H]2O[C@H](C)C[C@H](N(C)C)[C@H]2O)[C@](C)(OC)C[C@@H](C)C(=O)[C@H](C)[C@H]2[C@H](SCC(=O)Nc3cccc4cccnc34)C(=O)O[C@@]21C [Example 25]
>32 µg/mL	>32 µg/mL	2 µg/mL (≈ 2.01 µM)	0.125 µg/mL	>32 µg/mL	>32 µg/mL	>32 µg/mL	16 µg/mL	0.125 µg/mL (≈ 0.126 µM)	>32 µg/mL	CC[C@H]1OC(=O)[C@H](C)[C@@H](O[C@H]2C[C@@](C)(OC)[C@@H](O)[C@H](C)O2)[C@H](C)[C@@H](O[C@@H]2O[C@H](C)C[C@H](N(C)C)[C@H]2O)[C@](C)(OC)C[C@@H](C)C(=O)[C@H](C)[C@H]2[C@H](SCC(=O)c3ccc(N(CC)CC)cc3)C(=O)O[C@@]21C [Example 26]
>32 µg/mL	>32 µg/mL	1 µg/mL (≈ 1.02 µM)	<=0.06 μg/ml	4 µg/mL	4 µg/mL	8 µg/mL	8 µg/mL	<=0.06 μg/ml	>32 µg/mL	CC[C@H]1OC(=O)[C@H](C)[C@@H](O[C@H]2C[C@@](C)(OC)[C@@H](O)[C@H](C)O2)[C@H](C)[C@@H](O[C@@H]2O[C@H](C)C[C@H](N(C)C)[C@H]2O)[C@](C)(OC)C[C@@H](C)C(=O)[C@H](C)[C@H]2[C@H](SCC(=O)c3ccc(OC)cc3OC)C(=O)O[C@@]21C [Example 27]
>32 µg/mL	16 µg/mL (≈ 16.4 µM)	2 µg/mL (≈ 2.04 µM)	0.25 µg/mL	4 µg/mL	4 µg/mL	8 µg/mL	16 µg/mL	0.125 µg/mL (≈ 0.128 µM)	8 µg/mL (≈ 8.18 µM)	CC[C@H]1OC(=O)[C@H](C)[C@@H](O[C@H]2C[C@@](C)(OC)[C@@H](O)[C@H](C)O2)[C@H](C)[C@@H](O[C@@H]2O[C@H](C)C[C@H](N(C)C)[C@H]2O)[C@](C)(OC)C[C@@H](C)C(=O)[C@H](C)[C@H]2[C@H](SCC(=O)c3csc4ccccc34)C(=O)O[C@@]21C [Example 28]
